By Ki is commonly meant the dissociation constant of the complex between target and ligand, obtained from inhibition or displacement. By IC50 is commonly meant the midpoint of a concentration-inhibition curve.

Molecules are shown by their SMILES. Entries after “also recorded” stand apart in the source; their conditions may differ.

Data on six compounds can be found in patent US20120178815A1, “Compositions of (-)-E-10-OH-NT and Methods for Their Synthesis and Use” (Adolor Corporation, priority 2007, published 2012).

The target in data set [1] is human NE transporter (hNET) (Homo sapiens, UniProt P23975). Briefly: NE transporter competitive binding assay, [3H]nisoxetine. Particulars: Example 14; read-out: NET Ki. On the procedure: (§1) Protocol. […] Bound radioactivity was determined by scintillation spectroscopy. Non-specific binding was defined as the amount of binding that occurred in the presence of 1.0 μM desipramine. The Ki values of the various test compounds were determined using standard methods.
Sequence of human NE transporter (hNET) (P23975 whole entry): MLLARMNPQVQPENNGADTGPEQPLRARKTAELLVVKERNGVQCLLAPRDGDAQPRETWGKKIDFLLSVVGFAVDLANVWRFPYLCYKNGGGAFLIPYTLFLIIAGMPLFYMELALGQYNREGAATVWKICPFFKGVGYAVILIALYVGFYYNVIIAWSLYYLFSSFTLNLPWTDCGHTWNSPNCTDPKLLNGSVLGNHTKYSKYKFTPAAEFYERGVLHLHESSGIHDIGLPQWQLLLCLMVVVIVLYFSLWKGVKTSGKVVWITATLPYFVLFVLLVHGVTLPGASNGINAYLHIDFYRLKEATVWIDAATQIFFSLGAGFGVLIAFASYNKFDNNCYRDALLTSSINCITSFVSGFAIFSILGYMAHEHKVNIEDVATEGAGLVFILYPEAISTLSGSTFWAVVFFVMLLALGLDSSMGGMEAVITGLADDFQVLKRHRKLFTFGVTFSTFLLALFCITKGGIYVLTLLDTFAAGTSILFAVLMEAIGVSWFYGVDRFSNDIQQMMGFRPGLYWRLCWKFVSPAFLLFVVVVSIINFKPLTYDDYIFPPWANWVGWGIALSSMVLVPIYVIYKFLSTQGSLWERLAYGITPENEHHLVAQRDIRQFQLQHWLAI
as §1

Data set [2] deals with T1, human serotonin transporter (hSERT) (Homo sapiens, UniProt P31645).
T1 construct: expressed in transfected cells; host or cells: CHO cells (membranes)
T1 sequence (P31645 whole entry): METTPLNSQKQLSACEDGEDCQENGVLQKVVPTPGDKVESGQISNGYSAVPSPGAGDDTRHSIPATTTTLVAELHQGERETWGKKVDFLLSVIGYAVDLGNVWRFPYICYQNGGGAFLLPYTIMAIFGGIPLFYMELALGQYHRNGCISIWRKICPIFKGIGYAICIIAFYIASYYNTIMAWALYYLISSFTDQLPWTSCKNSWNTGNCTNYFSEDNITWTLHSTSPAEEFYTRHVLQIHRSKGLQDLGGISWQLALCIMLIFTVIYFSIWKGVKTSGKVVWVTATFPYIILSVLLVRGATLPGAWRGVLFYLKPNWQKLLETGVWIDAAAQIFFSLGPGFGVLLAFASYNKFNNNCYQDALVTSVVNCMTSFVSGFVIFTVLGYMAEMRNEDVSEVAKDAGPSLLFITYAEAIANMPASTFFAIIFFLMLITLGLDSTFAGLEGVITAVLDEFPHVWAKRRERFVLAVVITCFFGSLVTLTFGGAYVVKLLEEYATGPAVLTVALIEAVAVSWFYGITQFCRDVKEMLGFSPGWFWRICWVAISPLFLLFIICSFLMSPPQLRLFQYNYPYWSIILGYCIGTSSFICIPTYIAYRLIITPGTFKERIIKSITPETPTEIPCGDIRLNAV
Briefly: 5HT transporter competitive binding assay, [3H]imipramine. Particulars: Example 14; read-out: SERT Ki. On the procedure:
(§2) Bound radioactivity was determined by scintillation spectroscopy. […] The Ki values of the various test compounds were determined using standard methods.
as §2

The target of the next data set is T2, NE uptake, mouse atria (Mus musculus, UniProt O55192).
T2 construct: host or cells: mouse atria
T2 sequence (O55192 whole entry): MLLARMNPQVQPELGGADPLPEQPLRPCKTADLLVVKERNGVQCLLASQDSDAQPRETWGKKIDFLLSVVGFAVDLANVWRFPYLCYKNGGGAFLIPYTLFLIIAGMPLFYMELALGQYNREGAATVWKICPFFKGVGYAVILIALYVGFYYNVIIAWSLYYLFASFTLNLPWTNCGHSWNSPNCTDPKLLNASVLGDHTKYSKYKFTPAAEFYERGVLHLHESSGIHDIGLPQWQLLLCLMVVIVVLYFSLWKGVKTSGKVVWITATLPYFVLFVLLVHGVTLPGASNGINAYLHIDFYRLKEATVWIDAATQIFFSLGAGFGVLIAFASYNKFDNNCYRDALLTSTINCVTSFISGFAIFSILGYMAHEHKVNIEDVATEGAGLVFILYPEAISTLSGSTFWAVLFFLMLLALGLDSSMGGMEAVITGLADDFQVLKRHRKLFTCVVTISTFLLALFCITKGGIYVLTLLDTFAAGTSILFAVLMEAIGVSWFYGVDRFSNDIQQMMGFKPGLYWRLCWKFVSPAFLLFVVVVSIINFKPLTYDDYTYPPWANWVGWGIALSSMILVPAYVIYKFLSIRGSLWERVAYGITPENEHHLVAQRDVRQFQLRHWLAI
Conditions: Hyttel, 1980; cited from earlier work.

The test system of data set [3] is L5 SNL rats, tactile allodynia. Briefly: L5-Single Nerve Ligation model of neuropathic pain (von Frey). The format is in vivo, rat. Particulars: 30 mg/kg, i.p. On the procedure:
Protocol. […] The test animals were placed in a Plexiglas chamber (10 cm×20 cm×25 cm) and habituated for 15 minutes. The chamber was positioned on top of a mesh screen so that von Frey monofilaments could be presented to the plantar surface of both hindpaws. Measurement of tactile sensitivity for each hindpaw were obtained using the up/down method (Dixon, 1980) with seven Frey monofilaments (0.4, 1, 2, 4, 6, 8 and 15 grams). Each trial started with a von Frey force of 2 grams delivered to the right hindpaw for approximately 1-2 seconds and then the left hindpaw. If there was no withdrawal response, the next higher force was delivered. If there was a response, the next lower force was delivered. This procedure was performed until no response was made at the highest force (15 grams) or until four stimuli were administered following the initial response. Each test group contained 8 animals. The sham-operated control group, which were operated on but not subject to nerve ligation, contained 4 animals. All animals were tested at 60 minutes, and 240 minutes, post-administration of test compounds.
The 50% paw withdrawal threshold for each paw was calculated using the following formula: [Xth] log=[vFr] log+ky where [vFr] is the force of the last von Frey used, k=0.2249 which is the average interval (in log units) between the von Frey monofilaments, and y is a value that depends upon the pattern of withdrawal responses (Dixon, 1980). […] Testing for tactile sensitivity was performed twice and the mean 50% withdrawal value assigned as the tactile sensitivity for the right and left paws for each animal.
The E-10-OH-NT compounds were administered as either a maleate or succinate salt. AT was administered as a hydrochloride salt. Dosage amounts are based on the amount of free base. The test animals were placed in a Plexiglas chamber (10 cm×20 cm×25 cm) and habituated for 15 minutes. The chamber was positioned on top of a mesh screen so that von Frey monofilaments could be presented to the plantar surface of both hindpaws. Measurement of tactile sensitivity for each hindpaw were obtained using the up/down method (Dixon, 1980) with seven Frey monofilaments (0.4, 1, 2, 4, 6, 8 and 15 grams). Each trial started with a von Frey force of 2 grams delivered to the right hindpaw for approximately 1-2 seconds and then the left hindpaw. If there was no withdrawal response, the next higher force was delivered. If there was a response, the next lower force was delivered. This procedure was performed until no response was made at the highest force (15 grams) or until four stimuli were administered following the initial response. Each test group contained 8 animals. The sham-operated control group, which were operated on but not subject to nerve ligation, contained 4 animals. […]

Data set [4] is described as follows: Hygroscopicity of salt form. The format is physicochemical. Particulars: crystalline salt.
Data set [5] deals with acetic acid-induced abdominal constriction. Particulars: cited from earlier work.
For the next data set, the system named is pain intensity. Conditions: study completers; Atkinson et al., 1999; cited from earlier work.

For the compound `CNCC/C=C1\c2ccccc2CC(O)c2ccccc21` (racemic) [(±)-E-10-OH-NT, (S/R)-5-[3-Methylamino-prop-(E)-ylidene]-10,11-dihydro-5H-dibenzo[a,d]cyclohepten-10-ol, reference compound], the Ki turned out to be 51 nM in data set [1] and 420 nM in data set [2]. For the same compound, on NE uptake, mouse atria, the 50% inhibitory concentration (IC50) was 130 nM. Besides, the antiallodynic activity result in data set [3] is listed as “comparable to that of the vehicle-only control”. As to `CNCC/C=C1\c2ccccc2CC(O)c2ccccc21.O=C(O)CCC(=O)O` (single isomer, unassigned; (-)) [(−)-E-10-OH-NT Succinate], in data set [4], the hygroscopicity result is listed as “non-hydroscopic; also recorded: non-hygroscopic”. As to `COC1(C2=NCCN2)COc2ccccc2O1` (stereo not drawn) [RX821002, [2-(2-methoxy-1, -4-benzodioxan-2-yl)-2-imidazoline]], the “inhibition of acetic acid-induced abdominal constriction” value in data set [5] (doses up to 3 mg/kg, subcutaneously, by itself) was “did not produce significant inhibition”. For `Clc1cccc(Cl)c1N=C1NCCN1` [clonidine], the “protection against acetic acid-induced abdominal constriction” value in data set [5] (highest dose level, 1.0 mg/kg (s.c.)) is on record as 100%. As to `CNCCCC12CCC(c3ccccc31)c1ccccc12` [maprotiline], the “reduction in pain intensity” value in the data set on pain intensity was 45%.

In the case of `Fc1ccc([C@@H]2CCNC[C@H]2COc2ccc3c(c2)OCO3)cc1` [paroxetine], in the data set on pain intensity, the “reduction in pain intensity” value is given as 26%.
